Results reported in publication PMC7496920, “Structure‐Activity Relationship of Phenylpyrazolones against Trypanosoma cruzi” (Chemmedchem, 2020).

Assays:
[1] = test system: intracellular amastigotes of T. cruzi (Tulahuen strain); test: Trypanosoma cruzi in vitro susceptibility assay on intracellular amastigotes (β‐galactosidase strain); format: cell-based; details: for IC50: Trypanosoma cruzi, TULAHUEN, MRC-5 SV2, 168 h, intracellular amastigotes, Tulahuen CL2 β‐galactosidase strain in MRC‐5SV2 cells, 7 d, SD ±0.2, n>=2, read-out: pIC50 T. cruzi (converted); for SI (selectivity index): cytotoxicity (IC50, MRC‐5) divided by T. cruzi activity (IC50)
Procedure: Trypanosoma cruzi in vitro assay: Bloodstream trypomastigotes (BT) of the Y strain of T. cruzi were obtained by cardiac puncture of infected Swiss Webster mice on the parasitaemia peak.12 For the standard in vitro susceptibility assay on intracellular amastigotes, T. cruzi Tulahuen CL2, β‐galactosidase strain (DTU VI, nifurtimox‐sensitive) was used. The strain is maintained on MRC‐5SV2 (human lung fibroblast) cells in MEM medium, supplemented with […] L‐glutamine, 16.5 mM NaHCO3, and 5 % heat inactivated fetal calf serum (FCSi). […] The color reaction was read at 540 nm after 4 h, and absorbance values were expressed as a percentage of the blank controls. All cultures and assays are conducted at 37 °C under 5 % CO2.13 Benznidazole was used as a reference compound.

[2] = test system: MRC‐5 cells; parameters: method as in earlier work; details: earlier hit optimization; cited from earlier work
[3] = test system: intracellular amastigotes of T. cruzi (Tulahuen strain); parameters: method as in earlier work; details: earlier hit optimization; cited from earlier work
[4] = test system: MRC‐5 cells; test: MRC‐5 cytotoxicity in vitro assay (resazurin); format: cell-based, human; details: for IC50: Homo sapiens, MRC5, 72 h, MRC‐5‐SV2 cytotoxicity, 72 h, SD ±0.2, n>=2, read-out: pIC50 MRC‐5 (converted)
Procedure: MRC‐5 cytotoxicity in vitro assay: MRC‐5‐SV2 cells, originally from a human diploid lung cell line, were cultivated in MEM, supplemented with L‐glutamine (20 mM), 16.5 mM sodium hydrogen carbonate and 5 % FCSi. For the assay, 10^4 cells/well were seeded onto the test plates containing the pre‐diluted sample and incubated at 37 °C and 5 % CO2 for 72 h. Cell viability was assessed fluorometrically 4 h after addition of resazurin (excitation 550 nm, emission 590 nm). The results are expressed as percentage reduction in cell viability compared to untreated controls. Tamoxifen was used as a reference compound.

Row | Structure (SMILES) | IC50 [1] | SI (selectivity index) [1] | pIC50 MRC‐5 [2] | pIC50 T. cruzi [3] | IC50 [4] | MRC‐5 toxicity at 62 μM ([4]; 62 μM, limit concentration screened)
1 | COc1ccc(C2=NN(C(C)C)C(=O)C2(C)C)cc1-c1cccnc1 [compound 3, 2‐isopropyl‐5‐(4‐methoxy‐3‐(pyridin‐3‐yl)phenyl)‐4,4‐dimethyl‐2,4‐dihydro‐3H‐pyrazol‐3‐one] | 0.398 µM | 100 | 4.4 | 6.4 | 39.8 µM | 
2 | COc1ccc(-c2nnc(-c3cccc(F)c3)o2)cc1-c1cccnc1 [compound 136] | ~1.58 µM | >32 |  |  | > 63.1 µM | 
3 | CC(C)N1N=C(c2cc3c(c(-c4cccnc4)c2)OCC3)C(C)(C)C1=O [compound 59, 1‐Isopropyl‐4,4‐dimethyl‐3‐(7‐(pyridin‐3‐yl)‐2,3‐dihydrobenzofuran‐5‐yl)‐1H‐pyrazol‐5(4H)‐one] | 1.58 µM | 16 |  |  | 25.1 µM | 
4 | COc1ccc(-c2nnc(-c3ccccc3)o2)cc1-c1cccnc1 [compound 135] | ~1.58 µM | >40 |  |  | > 63.1 µM | 
5 | COc1ccc(-c2nc(C(C)(C)C)co2)cc1-c1cccnc1 [compound 120, 4‐(tert‐Butyl)‐2‐(4‐methoxy‐3‐(pyridin‐3‐yl)phenyl)oxazole] | 2 µM | 3 |  |  | < 6.31 µM | 
6 | COc1c(C)cc(C2=NN(C(C)C)C(=O)C2(C)C)cc1-c1cccnc1 [compound 67] | 12.6 µM | >5 |  |  | > 63.1 µM | 
7 | COc1ccc(C2=Nn3c(C4CC4)nnc3C2(C)C)cc1-c1cccnc1 [compound 109] | 15.8 µM | >4 |  |  | > 63.1 µM | 
8 | COc1ccc(-c2nc(-c3ccc(F)cc3)co2)cc1-c1cccnc1 [compound 123] | 0.631 µM | >100 |  |  | > 63.1 µM | no MRC‐5 toxicity
9 | COc1ccc(C2=NN(C(C)C)C(=O)C23CCN(C)CC3)cc1-c1cccnc1 [compound 91] | 31.6 µM | 2 |  |  | 50.1 µM | 
10 | COc1c(Br)cc(C2=NN(C(C)C)C(=O)C2(C)C)cc1-c1cccnc1 [compound 60] | 7.94 µM | 3 |  |  | 25.1 µM | 
11 | Cc1ccc(C2=NN(C(C)C)C(=O)C2(C)C)cc1-c1cccnc1 [compound 64] | ~3.16 µM | >25 |  |  | > 63.1 µM | 
12 | COc1ccc(-c2nnc(C(C)C)o2)cc1-c1cccnc1 [compound 132, 2‐Isopropyl‐5‐(4‐methoxy‐3‐(pyridin‐3‐yl)phenyl)‐1,3,4‐oxadiazole] | 20 µM | >3 |  |  | > 63.1 µM | 
13 | CC(C)N1N=C(c2ccc(F)c(-c3cccnc3)c2)C(C)(C)C1=O [compound 62] | ~3.16 µM | >10 |  |  | > 63.1 µM | 
14 | CC(C)N1N=C(c2ccc(C#N)c(-c3cccnc3)c2)C(C)(C)C1=O [compound 74] | 50.1 µM | >1 |  |  | > 63.1 µM | 
15 | COc1ccc(C2=NN(C(C)C)C(=O)C23CCCC3)cc1-c1cccnc1 [compound 89] | 6.31 µM |  |  |  | 31.6 µM | 
16 | CC(C)N1N=C(c2cccc(-c3cccnc3)c2)C(C)(C)C1=O [compound 61] | 3.16 µM | 20 |  |  | 63.1 µM | 
17 | COc1ccc(-c2nc(-c3ccccc3)cs2)cc1-c1cccnc1 [compound 142] | 2 µM | 1 |  |  | 2.51 µM | 
18 | COc1ccc(-c2nc(-c3cccc(F)c3)co2)cc1-c1cccnc1 [compound 122] | 1.26 µM |  |  |  |  | 

Row | Structure (SMILES) | IC50 [1] | SI (selectivity index) [1] | pIC50 MRC‐5 [2] | pIC50 T. cruzi [3] | IC50 [4] | MRC‐5 toxicity at 62 μM ([4]; 62 μM, limit concentration screened)
19 | COc1ccc(-c2cc3n(n2)CCO3)cc1-c1cccnc1 [compound 95] | 31.6 µM | 2 |  |  | 50.1 µM | 
20 | COc1cc(C2=NN(C(C)C)C(=O)C2(C)C)cc(-c2cccnc2)c1OC [compound 58] | 50.1 µM | >1 |  |  | > 63.1 µM | 
21 | COc1cc(C2=NN(C(C)C)C(=O)C2(C)C)cc(-c2cccnc2)c1 [compound 57] | 7.94 µM | 4 |  |  | 31.6 µM | 
22 | COc1ccc(C2=NN(C(C)C)C(=S)C2(C)C)cc1-c1cccnc1 [compound 99] | 0.501 µM | 32 |  |  | 15.8 µM | 
23 | COc1ccc(Cc2nnc(N)s2)cc1-c1cccnc1 [compound 98] | > 63.1 µM |  |  |  | > 63.1 µM | 
24 | COc1ccc(C2=NN(C(C)C)C(=O)C2(C)C)c(F)c1-c1cccnc1 [compound 65] | 2.51 µM | >25 |  |  | > 63.1 µM | 
25 | COc1ccc(C2=NN(C(C)C)C(=O)C23CCOCC3)cc1-c1cccnc1 [compound 92] | 31.6 µM | 1 |  |  | 31.6 µM | 
26 | COc1cc(F)c(C2=NN(C(C)C)C(=O)C2(C)C)cc1-c1cccnc1 [compound 66] | 5.01 µM | >13 |  |  | > 63.1 µM | 
27 | COc1ccc(-c2nnc(CC3CCOCC3)o2)cc1-c1cccnc1 [compound 134] | 25.1 µM | >3 |  |  | > 63.1 µM | 
28 | COc1ccc(-c2nc(C3CC3)cs2)cc1-c1cccnc1 [compound 141] | 2.51 µM | 3 |  |  | 7.94 µM | 
29 | COc1cc(C)c(C2=NN(C(C)C)C(=O)C2(C)C)cc1-c1cccnc1 [compound 68] | 31.6 µM | >2 |  |  | > 63.1 µM | 
30 | COc1ccc(C2=NN(C(C)C)C(=O)CC2)cc1-c1cccnc1 [compound 104] | 10 µM | 3 |  |  | 25.1 µM | 
31 | COc1ccc(-c2nc(-c3ccccc3)co2)cc1-c1cccnc1 [compound 121] | 1 µM | 3 |  |  | < 6.31 µM | 
32 | COc1ccc(-c2nnc(C3CCCC3)o2)cc1-c1cccnc1 [compound 133] | 10 µM | >6 |  |  | > 63.1 µM | 
33 | COc1ccc(-c2nc(-c3ccccc3)c(C)o2)cc1-c1cccnc1 [compound 124] | 2 µM | 3 |  |  | < 6.31 µM | 
34 | CC(C)N1N=C(c2ccc(Cl)c(-c3cccnc3)c2)C(C)(C)C1=O [compound 63] | ~3.16 µM | 5 |  |  | 15.8 µM | 
35 | COc1ccc(C2=NN(C(C)C)C(=O)C23CC=CC3)cc1-c1cccnc1 [compound 90] | 7.94 µM |  |  |  | 39.8 µM | 
